Results published in US20090118286A1, “Heterobicyclic Acrylamides” (Bayer Cropscience AG, priority 2005, published 2009).
Read-outs that look alike come from different tables or passages of the source.

Tests used:
[1] = test system: caterpillars of the army worm (Spodoptera frugiperda); experiment: Spodoptera frugiperda test, SPODFR spray treatment; format: in vivo; settings: foliar, 168 h, 500 g a. i./ha, spray treatment of maize leaf discs, 7 d, read-out: % 7 d (effect in %, caterpillars killed)
Method: [table] To produce a suitable preparation of active compound, 1 part by weight of active compound is mixed with the stated amounts of solvents and emulsifier, and the concentrate is diluted with emulsifier-containing water to the desired concentration. Discs of maize leaves (Zea mays) are sprayed with a preparation of active compound of the desired concentration and, after drying, populated with caterpillars of the army worm (Spodoptera frugiperda). After the desired period of time, the effect in % is determined. 100% means that all caterpillars have been killed; 0% means that none of the caterpillars have been killed.

[2] = log P determination by HPLC (EEC Directive 79/831 Annex V.A8, gradient method); format: physicochemical; settings: for chromatographic logP: HPLC, gradient method, acetonitrile/0.1% strength aqueous phosphoric acid or formic acid

O=C(/C=C/c1c(-c2ccc(F)cc2Cl)nc2sc(C(F)(F)F)nn12)NCC(F)(F)F [Example 0603]
pest or weed control at 500 g/ha [1]: 100%
chromatographic logP ([2]; read-out: Physical data: log P): 3.51

CCC(CC)NC(=O)/C=C/c1c(-c2ccccc2Cl)nc2sc(C(F)(F)Cl)nn12 [Example 0781]
pest or weed control at 500 g/ha [1]: 100%
chromatographic logP ([2]; read-out: Physical data: logP): 3.95

CCC(CC)NC(=O)/C=C/c1c(-c2ccccc2Cl)nc2sc(C(F)(F)F)nn12 [Example 0215]
pest or weed control at 500 g/ha [1]: 100%
chromatographic logP ([2]; read-out: Physical data (logP)): 3.72

Cc1ccccc1-c1nc2sc(C(F)(F)F)nn2c1/C=C/C(=O)NC(C)c1ccccn1 (stereo not drawn) [Example 0274]
pest or weed control at 500 g/ha [1]: 100%
chromatographic logP ([2]; read-out: Physical data: log P): 2.45

CCCC(C)NC(=O)/C=C/c1c(-c2ccccc2C)nc2sc(C(F)(F)F)nn12 (stereo not drawn) [Example 0239]
pest or weed control at 500 g/ha [1]: 100%
chromatographic logP ([2]; read-out: Physical data: log P): 3.94

CC(C)C(C)NC(=O)/C=C/c1c(-c2ccccc2Cl)nc2sc(C(F)(F)F)nn12 (stereo not drawn) [Example 0174]
pest or weed control at 500 g/ha [1]: 83%
chromatographic logP ([2]; read-out: Physical data (logP)): 3.76

O=C(/C=C/c1c(-c2ccccc2Cl)nc2sc(C(F)(F)F)nn12)N1CCOCC1 [Example 0223]
pest or weed control at 500 g/ha [1]: 100%
chromatographic logP ([2]; read-out: Physical data: log P): 2.79

CCCC(C)NC(=O)/C=C/c1c(-c2ccccc2Cl)nc2sc(C(F)(F)F)nn12 (stereo not drawn) [Example 0168]
pest or weed control at 500 g/ha [1]: 100%
chromatographic logP ([2]; read-out: Physical data (logP)): 3.85

CCC(CC)NC(=O)/C=C/c1c(-c2ccccc2F)nc2sc(C(F)(F)F)nn12 [Example 0499]
pest or weed control at 500 g/ha [1]: 83%
chromatographic logP ([2]; read-out: Physical data: log P): 3.59

Cc1ccccc1-c1nc2sc(C(F)(F)F)nn2c1/C=C/C(=O)NC(C)C(C)C (stereo not drawn) [Example 0245]
pest or weed control at 500 g/ha [1]: 83%
chromatographic logP ([2]; read-out: Physical data: log P): 3.9

O=C(/C=C/c1c(-c2ccc(F)cc2Cl)nc2sc(C(F)(F)F)nn12)NCc1ccc(F)cc1 [Example 0614]
pest or weed control at 500 g/ha [1]: 100%

CC(NC(=O)/C=C/c1c(-c2ccc(Cl)cc2)nc2sc(C(F)(F)F)nn12)c1ccccc1 (stereo not drawn) [Example 0038]
Physical data (logP) [2]: 4.32

COc1ccc(-c2nc3sc(C(F)(F)F)nn3c2/C=C/C(=O)NC2CCCC2)cc1OC [Example 0658]
Physical data: logP [2]: 3.26

CC(NC(=O)/C=C/c1c(-c2ccccc2Cl)nc2sc(C(C)(C)C)nn12)C(F)(F)F (stereo not drawn) [Example 0795]
Physical data: logP [2]: 3.88

CC(ONC(=O)/C=C/c1c(-c2ccc(F)cc2)nc2sc(C(F)(F)F)nn12)c1ccccc1 (stereo not drawn) [Example 0355]
Physical data: log P [2]: 3.81

O=C(/C=C/c1c(-c2ccccc2Cl)nc2sc(-c3ccc(C(F)(F)F)cc3)nn12)NC1CCC(Cl)CC1 (stereo not drawn) [Example 0855]
Physical data: logP [2]: 5.27

O=C(/C=C/c1c(-c2ccccc2Cl)nc2sc(-c3ccc(C(F)(F)F)cc3)nn12)NCC(F)(F)F [Example 0844]
Physical data: logP [2]: 4.21

COCc1nn2c(/C=C/C(=O)NC(C)C(F)(F)F)c(-c3ccccc3Cl)nc2s1 (stereo not drawn) [Example 0817]
Physical data: logP [2]: 2.93

CC(NC(=O)/C=C/c1c(-c2cccc(C(F)(F)F)c2)nc2sc(C(F)(F)F)nn12)c1ccccc1 (stereo not drawn) [Example 0402]
Physical data: log P [2]: 4.46

COCc1nn2c(/C=C/C(=O)Nc3ccc(OC(F)(F)F)cc3)c(-c3ccccc3Cl)nc2s1 [Example 0834]
Physical data: logP [2]: 4

O=C(O)/C=C/c1c(-c2ccc(F)cc2Cl)nc2sc(C(F)(F)C(F)(F)C(F)(F)F)nn12 [VA135]
Physical data (logP) [2]: 3.75

COc1ccc(-c2nc3sc(C(F)(F)F)nn3c2/C=C/C(=O)N2CCCCC2)cc1OC [Example 0717]
Physical data: logP [2]: 3.41

Cc1ccccc1-c1nc2sc(C(F)(F)F)nn2c1/C=C/C(=O)NC(C)COc1ccccc1 (stereo not drawn) [Example 0265]
Physical data: log P [2]: 4.18

O=C(O)/C=C/c1c(-c2ccccc2Cl)nc2scnn12 [VA112]
Physical data (logP) [2]: 1.84

O=C(/C=C/c1c(-c2cccc(C(F)(F)F)c2)nc2sc(C(F)(F)F)nn12)NC1CCCCC1 [Example 0378]
Physical data: log P [2]: 4.61

O=C(C=Cc1c(-c2ccccc2Cl)nc2sc(C(F)(F)F)nn12)NC(c1ccc(F)cc1)C(F)(F)F (stereo not drawn) [Example 0918]
Physical data: logP [2]: 4.34

COc1ccc(-c2nc3sc(C(F)(F)F)nn3c2/C=C/C(=O)NC2CCCCC2)cc1OC [Example 0659]
Physical data: logP [2]: 3.55

CC(C)(C)CNC(=O)/C=C/c1c(-c2ccccc2Cl)nc2sc(C(C)(C)C)nn12 [Example 0797]
Physical data: logP [2]: 4.06

O=C(/C=C/c1c(-c2cccc(C(F)(F)F)c2)nc2sc(C(F)(F)F)nn12)NC1CCC1 [Example 0376]
Physical data: log P [2]: 4.03

CON(C)C(=O)/C=C/c1c(-c2ccc(Cl)cc2Cl)nc2sc(C(F)(F)F)nn12 [Example 0572]
Physical data: log P [2]: 3.8

Cc1csc2nc(-c3ccccc3Cl)c(/C=C/C(=O)Nc3ccc(Cl)cc3)n12 [Example 0899]
Physical data: logP [2]: 3.24

CC(NC(=O)/C=C/c1c(-c2cccc(Cl)c2)nc2sc(C(F)(F)F)nn12)c1cccnc1 (stereo not drawn) [Example 0124]
Physical data (logP) [2]: 2.8

CC(C)NC(=O)/C=C/c1c(-c2ccccc2Cl)nc2scc(-c3ccccc3)n12 [Example 0904]
Physical data: logP [2]: 2.77

C=CCN(C)C(=O)/C=C/c1c(-c2cccc(C(F)(F)F)c2)nc2sc(C(F)(F)F)nn12 [Example 0431]
Physical data: log P [2]: 4.22

CCN(CC)C(=O)/C=C/c1c(-c2ccccc2F)nc2sc(C(F)(F)F)nn12 [Example 0505]
Physical data: log P [2]: 3.45

O=C(O)/C=C/c1c(-c2ccccc2Cl)nc2sc(C(F)(F)C(F)(F)F)nn12 [VA113]
Physical data (logP) [2]: 3.19

CC(C)(C)NC(=O)/C=C/c1c(-c2cccc(C(F)(F)F)c2)nc2sc(C(F)(F)F)nn12 [Example 0373]
Physical data: log P [2]: 4.41

O=C(/C=C/c1c(-c2cccc(Cl)c2)nc2sc(C(F)(F)F)nn12)NC1CCCC1 [Example 0084]
Physical data (logP) [2]: 4.13

O=C(O)/C=C/c1c(-c2ccccc2F)nc2sc(C(F)(F)F)nn12 [VA-8]
Physical data (logP) [2]: 2.55

O=Cc1c(-c2ccc(OCc3ccccc3)cc2)nc2sc(C(F)(F)F)nn12 [IVA120]
Physical data (logP) [2]: 4.02

CCC(C)NC(=O)/C=C/c1c(-c2ccc(F)cc2)nc2sc(C(F)(F)F)nn12 (stereo not drawn) [Example 0309]
Physical data: log P [2]: 3.55

CC(C)(C)c1nn2c(/C=C/C(=O)NC3CCC3)c(-c3ccccc3Cl)nc2s1 [Example 0808]
Physical data: logP [2]: 3.52

O=C(/C=C/c1c(-c2ccccc2Cl)nc2sc(-c3ccc(C(F)(F)F)cc3)nn12)NC1CC1 [Example 0851]
Physical data: logP [2]: 3.75

Cc1cn2c(/C=C/C(=O)NC3CCCCC3)c(-c3ccccc3Cl)nc2s1 [Example 0876]
Physical data: logP [2]: 3.05

Cc1ccccc1-c1nc2sc(C(F)(F)F)nn2c1/C=C/C(=O)NC1CC1 [Example 0233]
Physical data: log P [2]: 2.99

O=C(/C=C/c1c(-c2cccc(C(F)(F)F)c2)nc2sc(C(F)(F)F)nn12)N1CCOCC1 [Example 0436]
Physical data: log P [2]: 3.55

CC(C)CCNC(=O)/C=C/c1c(-c2ccccc2Cl)nc2sc(-c3ccc(C(F)(F)F)cc3)nn12 [Example 0842]
Physical data: logP [2]: 4.72

CC(NC(=O)/C=C/c1c(-c2cccc(Cl)c2)nc2sc(C(F)(F)F)nn12)C(F)(F)F (stereo not drawn) [Example 0094]
pest or weed control at 500 g/ha [1]: 100%

O=Cc1c(-c2nccs2)nc2sc(C(F)(F)F)nn12 [IVA113]
Physical data (logP) [2]: 2.43

COCc1nn2c(/C=C/C(=O)Nc3ccc(Cl)cc3)c(-c3ccccc3Cl)nc2s1 [Example 0833]
Physical data: logP [2]: 3.87

CC(C)NC(=O)/C=C/c1c(-c2ccc(F)cc2Cl)nc2sc(C(F)(F)C(F)(F)F)nn12 [Example 0972]
Physical data: logP [2]: 3.79

O=C(/C=C/c1c(-c2cccc(C(F)(F)F)c2)nc2sc(C(F)(F)F)nn12)NOCC1CC1 [Example 0424]
Physical data: log P [2]: 3.81

CC(C)(C)c1nn2c(/C=C/C(=O)NC3CCC(C(F)(F)F)CC3)c(-c3ccccc3Cl)nc2s1 (stereo not drawn) [Example 0799]
Physical data: logP [2]: 4.32

CC(NC(=O)/C=C/c1c(-c2ccc(F)cc2)nc2sc(C(F)(F)F)nn12)c1ccccc1 (stereo not drawn) [Example 0331]
Physical data: log P [2]: 3.9

CC(ONC(=O)/C=C/c1c(-c2cccc(C(F)(F)F)c2)nc2sc(C(F)(F)F)nn12)c1ccccc1 (stereo not drawn) [Example 0426]
Physical data: log P [2]: 4.37

O=C(/C=C/c1c(-c2ccc(F)cc2)nc2sc(C(F)(F)F)nn12)NC1CCCCC1 [Example 0307]
Physical data: log P [2]: 3.99

CC(COc1ccccc1)NC(=O)/C=C/c1c(-c2ccccc2Cl)nc2sc(C(F)(F)F)nn12 (racemic) [Example 0194]
Physical data (logP) [2]: 4.03

COc1ccc(-c2nc3sc(C(F)(F)F)nn3c2/C=C/C(=O)NC(C)COc2ccccc2)cc1OC (stereo not drawn) [Example 0689]
Physical data: logP [2]: 3.72

O=C(O)/C=C/c1c(-c2ccc(OCc3ccccc3)cc2)nc2sc(C(F)(F)F)nn12 [VA122]
Physical data (logP) [2]: 3.73

O=C(/C=C/c1c(-c2ccccc2Cl)nc2sc(-c3ccc(C(F)(F)F)cc3)nn12)NC1CCCCC1 [Example 0854]
Physical data: logP [2]: 4.76

CC(C)C(NC(=O)C=Cc1c(-c2ccc(F)cc2Cl)nc2sc(C(F)(F)C(F)(F)F)nn12)C(F)(F)F (stereo not drawn) [Example 0975]
Physical data: logP [2]: 4.76

O=C(/C=C/c1c(-c2ccccc2Cl)nc2sc(C(F)(F)F)nn12)NC1CCCC1 [Example 0154]
Physical data (logP) [2]: 3.55

Cc1csc2nc(-c3ccccc3Cl)c(/C=C/C(=O)NC(C)C(C)(C)C)n12 (stereo not drawn) [Example 0892]
Physical data: logP [2]: 2.84

O=Cc1c(-c2ccc(-c3ccccc3)cc2)nc2sc(C(F)(F)F)nn12 [IVA118]
Physical data (logP) [2]: 4.08

O=C(/C=C/c1c(-c2cccc(C(F)(F)F)c2)nc2sc(C(F)(F)F)nn12)N1CCCCC1 [Example 0435]
Physical data: log P [2]: 4.51
